Patent US12479830B2, “Homopiperazinyl and homopiperidinyl quinazolin-4(3H)-one derivatives having multimodal activity against pain” (ESTEVE PHARMACEUTICALS, S.A., priority 2019, dated 2025)

What was measured:
Human σ1 receptor = molecular target: T1, Human σ1 receptor (Homo sapiens, UniProt Q99720); assay: Human σ1 receptor radioligand assay ([3H](+)-pentazocine binding); details: binding to the σ1 receptor, expressed as Ki class; + also covers inhibition between 1% and 50%
T1 construct: expressed in transfected cells; host or cells: HEK-293
T1 sequence (Q99720 whole entry): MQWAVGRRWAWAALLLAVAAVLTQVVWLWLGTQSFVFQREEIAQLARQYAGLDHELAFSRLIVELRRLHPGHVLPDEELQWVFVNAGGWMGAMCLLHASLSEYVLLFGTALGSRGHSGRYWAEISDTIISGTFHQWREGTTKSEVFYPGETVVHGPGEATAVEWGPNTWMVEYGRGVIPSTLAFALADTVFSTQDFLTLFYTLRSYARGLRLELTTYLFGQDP
How it was run: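 Membranes (7 μg) were incubated with 5 nM [3H](+)-pentazocine in 50 mM Tris-HCl pH 8 for 120 min at 37° C. Non-specific binding was defined with 10 μM haloperidol. Values are % inhibition at 1 or 10 μM or Ki from five concentrations, read by filtration and scintillation counting.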

[1] = molecular target: Human α2δ-1 subunit of Cav2.2 calcium channel (Homo sapiens, UniProt P54289); assay: Human α2δ-1 subunit of Cav2.2 calcium channel assay ([3H]-gabapentin binding); details: binding to the α2δ-1 subunit of voltage-gated calcium channels, expressed as Ki class; + also covers inhibition between 1% and 50%
Sequence of Human α2δ-1 subunit of Cav2.2 calcium channel (P54289 25-1103): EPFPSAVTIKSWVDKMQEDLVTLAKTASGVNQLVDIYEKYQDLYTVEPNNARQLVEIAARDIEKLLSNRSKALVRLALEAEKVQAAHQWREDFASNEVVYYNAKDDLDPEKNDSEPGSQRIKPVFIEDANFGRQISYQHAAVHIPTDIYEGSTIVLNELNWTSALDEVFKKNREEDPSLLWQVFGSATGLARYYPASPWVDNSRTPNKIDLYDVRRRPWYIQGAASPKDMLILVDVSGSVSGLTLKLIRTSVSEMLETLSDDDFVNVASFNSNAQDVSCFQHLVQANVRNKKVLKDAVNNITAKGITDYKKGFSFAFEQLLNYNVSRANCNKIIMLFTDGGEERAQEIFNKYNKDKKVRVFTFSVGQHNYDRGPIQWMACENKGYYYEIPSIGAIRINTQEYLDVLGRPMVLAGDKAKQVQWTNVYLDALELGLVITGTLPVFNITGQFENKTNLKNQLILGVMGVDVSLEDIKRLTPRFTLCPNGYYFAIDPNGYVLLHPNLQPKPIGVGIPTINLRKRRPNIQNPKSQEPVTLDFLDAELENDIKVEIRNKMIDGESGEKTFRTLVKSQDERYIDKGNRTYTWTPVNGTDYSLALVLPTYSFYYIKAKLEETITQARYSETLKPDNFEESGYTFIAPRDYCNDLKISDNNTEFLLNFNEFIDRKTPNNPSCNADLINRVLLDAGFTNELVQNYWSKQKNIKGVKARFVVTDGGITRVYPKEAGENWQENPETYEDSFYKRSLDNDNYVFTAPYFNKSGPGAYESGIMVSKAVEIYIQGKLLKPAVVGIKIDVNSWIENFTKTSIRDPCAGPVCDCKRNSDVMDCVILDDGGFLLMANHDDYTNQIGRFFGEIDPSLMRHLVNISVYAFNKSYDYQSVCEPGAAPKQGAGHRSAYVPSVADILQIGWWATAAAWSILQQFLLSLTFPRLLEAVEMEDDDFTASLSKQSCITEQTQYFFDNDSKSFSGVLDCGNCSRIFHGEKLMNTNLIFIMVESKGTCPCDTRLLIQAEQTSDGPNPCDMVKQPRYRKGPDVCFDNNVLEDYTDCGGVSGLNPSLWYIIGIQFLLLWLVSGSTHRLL
How it was run: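 Human α2δ-1 enriched membranes (2.5 μg) incubated 60 min at 27° C. with 15 nM [3H]-gabapentin in 10 mM Hepes-KOH pH 7.4; non-specific binding with 10 μM pregabalin. Filtration binding; % inhibition at 1 or 10 μM, or Ki from five concentrations.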

Row | Ki (Human σ1 receptor) [µM] | Ki [1] [µM] | SMILES
1 | 0.5 to 1 | < 0.5 | CCC[C@H](c1nc2cc(F)c(OC)cc2c(=O)n1CC)N1CCN(C)C[C@H](C)C1 [Example 238, 2-((R)-1-((S)-4,6-dimethyl-1,4-diazepan-1-yl)butyl)-3-ethyl-7-fluoro-6-methoxyquinazolin-4(3H)-one]
2 | < 0.5 | > 5 | CCC[C@H](c1nc2ccc(Cl)cc2c(=O)n1C)N1CC[C@H](C)N(C)CC1 [Example 254, 6-chloro-2-((R)-1-((S)-4,5-dimethyl-1,4-diazepan-1-yl)butyl)-3-methylquinazolin-4(3H)-one]
3 | > 1 | > 5 | CCCC(c1nc2ncc(F)cc2c(=O)n1CC1CC1)N1CCN[C@@H](C)CC1 (single isomer, unassigned) [Example 194]
4 | 0.5 to 1 | > 5 | CCC[C@@H](c1nc2cc(F)c(Cl)cc2c(=O)n1CC)N1CCN(C)C[C@H](C)C1 [Example 137, 6-chloro-2-((S)-1-((S)-4,6-dimethyl-1,4-diazepan-1-yl)butyl)-3-ethyl-7-fluoroquinazolin-4(3H)-one]
5 | < 0.5 | < 0.5 | CCCC(c1nc2ccc(Br)cc2c(=O)n1CC(C)C)N1CCCN(CC)CC1 (stereo not drawn) [Example 58, 6-bromo-2-(1-(4-ethyl-1,4-diazepan-1-yl)butyl)-3-isobutylquinazolin-4(3H)-one]
6 | < 0.5 | > 5 | CCC[C@H](c1nc2ccc(F)cc2c(=O)n1CCC(C)C)N1CCCN(C)CC1 [Example 226, (R)-6-fluoro-3-isopentyl-2-(1-(4-methyl-1,4-diazepan-1-yl)butyl)quinazolin-4(3H)-one]
7 | < 0.5 | > 5 | CCCC(c1nc2c(C)cc(Br)cc2c(=O)n1CC)N1CCCN(CC)CC1 (stereo not drawn) [Example 60, 6-bromo-3-ethyl-2-(1-(4-ethyl-1,4-diazepan-1-yl)butyl)-8-methylquinazolin-4(3H)-one]
8 | < 0.5 | < 0.5 | CCC[C@H](c1nc2ccc(F)cc2c(=O)n1CC1CC1)N1CCCN(CC)CC1 [Example 218, (R)-3-(cyclopropylmethyl)-2-(1-(4-ethyl-1,4-diazepan-1-yl)butyl)-6-fluoroquinazolin-4(3H)-one]
9 | 0.5 to 1 | < 0.5 | CCCC(c1nc2ccc(Cl)cc2c(=O)n1CC)N1CCCN(C)CC1 (stereo not drawn) [Example 19, 6-chloro-3-ethyl-2-(1-(4-methyl-1,4-diazepan-1-yl)butyl)quinazolin-4(3H)-one]
10 | 0.5 to 1 | < 0.5 | CCC[C@H](c1nc2ccc(Br)cc2c(=O)n1CC)N1CC[C@H](C)N(C)CC1 [Example 262]
11 | < 0.5 | 0.5 to 5 | CCCC(c1nc2ccc(Br)c(C)c2c(=O)n1CC)N1CCCN(CC)CC1 (stereo not drawn) [Example 47, 6-bromo-3-ethyl-2-(1-(4-ethyl-1,4-diazepan-1-yl)butyl)-5-methylquinazolin-4(3H)-one]
12 | > 1 | < 0.5 | CCC[C@H](c1nc2ncc(F)cc2c(=O)n1CC1CC1)N1CCN[C@H](C)CC1 [Example 196, 3-(cyclopropylmethyl)-6-fluoro-2-((R)-1-((R)-5-methyl-1,4-diazepan-1-yl)butyl)pyrido[2,3-d]pyrimidin-4(3H)-one]
13 | > 1 | > 5 | CCC[C@@H](c1nc2ncc(Br)cc2c(=O)n1CC)N1CCNC[C@@H](C)C1 [Example 198, 6-bromo-3-ethyl-2-((S)-1-((R)-6-methyl-1,4-diazepan-1-yl)butyl)pyrido[2,3-d]pyrimidin-4(3H)-one]
14 | 0.5 to 1 | < 0.5 | CCC[C@H](c1nc2cc(OC)c(F)cc2c(=O)n1CC)N1CCCN(CC)CC1 [Example 231, (R)-3-ethyl-2-(1-(4-ethyl-1,4-diazepan-1-yl)butyl)-6-fluoro-7-methoxyquinazolin-4(3H)-one]

The remaining lines, values behind:

Row | SMILES | Ki (Human σ1 receptor) [µM] | Ki [1] [µM]
15 | CCC[C@H](c1nc2ccc(F)cc2c(=O)n1Cc1ccoc1)N1CCCN(C)CC1 [Example 227] | < 0.5 | < 0.5
16 | CCC[C@@H](c1nc2ccc(Br)cc2c(=O)n1CC)N1CCCN(C)CC1 [Example 152, (S)-6-bromo-3-ethyl-2-(1-(4-methyl-1,4-diazepan-1-yl)butyl)quinazolin-4(3H)-one] | 0.5 to 1 | > 5
17 | CCC[C@H](c1nc2ccc(Br)cc2c(=O)n1CC)N1CCNC[C@H](O)C1 [Example 116, 6-bromo-3-ethyl-2-((R)-1-((S)-6-hydroxy-1,4-diazepan-1-yl)butyl)quinazolin-4(3H)-one] | > 1 | < 0.5
18 | CCCC(c1nc2ccncc2c(=O)n1CC)N1CCCN(C)CC1 (stereo not drawn) [Example 163, 3-Ethyl-2-(1-(4-methyl-1,4-diazepan-1-yl)butyl)pyrido[4,3-d]pyrimidin-4(3H)-one] | > 1 | < 0.5
19 | CCCC(c1nc2ccc(Br)cc2c(=O)n1CC)N1CCCN(CC)CC1 (stereo not drawn) [Example 7, 6-bromo-3-ethyl-2-(1-(4-ethyl-1,4-diazepan-1-yl)butyl)quinazolin-4(3H)-one] | < 0.5 | < 0.5
20 | CCC[C@H](c1nc2ccc(Cl)cc2c(=O)n1C)N1CC[C@@H](C)N(C)CC1 [Example 257, 6-chloro-2-((R)-1-((R)-4,5-dimethyl-1,4-diazepan-1-yl)butyl)-3-mehtylquinazolin-4(3H)-one] | < 0.5 | > 5
21 | CCC[C@@H](c1nc2cc(Cl)c(Cl)cc2c(=O)n1CC)N1CCN(C)C[C@H](C)C1 [Example 133, 6,7-dichloro-2-((S)-1-((S)-4,6-dimethyl-1,4-diazepan-1-yl)butyl)-3-ethylquinazolin-4(3H)-one] | > 1 | > 5
22 | CCC[C@@H](c1nc2ncc(Br)cc2c(=O)n1CC)N1CCN(C)C[C@@H](C)C1 [Example 189, 6-bromo-2-((S)-1-((R)-4,6-dimethyl-1,4-diazepan-1-yl)butyl)-3-ethylpyrido[2,3-d]pyrimidin-4(3H)-one] | > 1 | > 5
23 | CCC[C@@H](c1nc2ccc(Br)cc2c(=O)n1CCC)N1CCNC[C@@H](C)C1 [Example 70, 6-bromo-2-((S)-1-((R)-6-methyl-1,4-diazepan-1-yl)butyl)-3-propylquinazolin-4(3H)-one] | > 1 | > 5
24 | CCC[C@H](c1nc2ccncc2c(=O)n1CC)N1CCN(C)C[C@H](C)C1 [Example 169, 2-((R)-1-((S)-4,6-dimethyl-1,4-diazepan-1-yl)butyl)-3-ethylpyrido[4,3-d]pyrimidin-4(3H)-one] | > 1 | < 0.5
25 | CCC[C@@H](c1nc2ccc(Br)cc2c(=O)n1CC)N1CCN(C)C[C@H](COC)C1 [Example 107, 6-bromo-3-ethyl-2-((S)-1-((S)-6-(methoxymethyl)-4-methyl-1,4-diazepan-1-yl)butyl)quinazolin-4(31-)-one] | 0.5 to 1 | 0.5 to 5
26 | CCC[C@H](c1nc2ccncc2c(=O)n1CC)N1CCNC[C@@H](C)C1 [Example 165, 3-ethyl-2-((R)-1-((R)-6-methyl-1,4-diazepan-1-yl)butyl)pyrido[4,3-d]pyrimidin-4(3H)-one] | > 1 | < 0.5
27 | CCCC(c1nc2ccc(Br)c(Cl)c2c(=O)n1CC)N1CCCNCC1 (stereo not drawn) [Example 82, 2-(1-(1,4-diazepan-1-yl)butyl)-6-bromo-5-chloro-3-ethylquinazolin-4(3H)-one] | 0.5 to 1 | 0.5 to 5
28 | CCC[C@H](c1nc2ccc(F)cc2c(=O)n1CCC)N1CCCN(C)CC1 [Example 211, (R)-6-fluoro-2-(1-(4-methyl-1,4-diazepan-1-yl)butyl)-3-propylquinazolin-4(3H)-one] | < 0.5 | < 0.5
29 | CCC[C@@H](c1nc2cc(F)c(Br)cc2c(=O)n1CC)N1CCN(C)C[C@H](C)C1 [Example 128, 6-bromo-2-((S)-1-((S)-4,6-dimethyl-1,4-diazepan-1-yl)butyl)-3-ethyl-7-fluoroquinazolin-4(3H)-one] | > 1 | > 5
30 | CCC[C@@H](c1nc2ccc(Br)cc2c(=O)n1CCC)N1CCNC[C@H](C)C1 [Example 69, 6-bromo-2-((S)-1-((S)-6-methyl-1,4-diazepan-1-yl)butyl)-3-propylquinazolin-4(3H)-one] | > 1 | 0.5 to 5
31 | CCC[C@H](c1nc2ccc(F)cc2c(=O)n1C)N1CCCN(C)CC1 [Example 216, (R)-6-fluoro-3-methyl-2-(1-(4-methyl-1,4-diazepan-1-yl)butyl)quinazolin-4(3H)-one] | < 0.5 | 0.5 to 5
32 | CCC[C@H](c1nc2ccc(F)cc2c(=O)n1CC)N1CCN[C@@H](C)CC1 [Example 236, 3-ethyl-6-fluoro-2-((R)-1-((S)-5-methyl-1,4-diazepan-1-yl)butyl)quinazolin-4(3H)-one] | < 0.5 | < 0.5
33 | CCC[C@H](c1nc2ccc(Cl)cc2c(=O)n1C)N1CCN[C@H](C)CC1 [Example 245, 6-chloro-3-methyl-2-((R)-1-((R)-5-methyl-1,4-diazepan-1-yl)butyl)quinazolin-4(3H)-one] | 0.5 to 1 | > 5
34 | CCCC(c1nc2ccc(I)cc2c(=O)n1CC)N1CCCN(C)CC1 (stereo not drawn) [Example 12, 3-ethyl-6-iodo-2-(1-(4-methyl-1,4-diazepan-1-yl)butyl)quinazolin-4(3H)-one] | < 0.5 | < 0.5
35 | CCC[C@H](c1nc2c(F)cc(Cl)cc2c(=O)n1CC)N1CCCN(C)CC1 [Example 234, (R)-6-chloro-3-ethyl-8-fluoro-2-(1-(4-methyl-1,4-diazepan-1-yl)butyl)quinazolin-4(3H)-one] | 0.5 to 1 | < 0.5
36 | CCCC(c1nc2c(F)cc(Br)cc2c(=O)n1CC)N1CCCNCC1 (stereo not drawn) [Example 55, 2-(1-(1,4-diazepan-1-yl)butyl)-6-bromo-3-ethyl-8-fluoroquinazolin-4(3H)-one] | > 1 | 0.5 to 5
